One assay has as its target T1, EcDXPS (Escherichia coli, UniProt P77488).
T1 construct: made in house
The assay is described as follows: DXPS-IspC coupled assay, aerobic, WT EcDXPS. Type of assay: biochemical, E. coli. Here is the method: (§1) Inhibitory activity of compounds against DXPS were monitored via a continuous spectrophotometric coupled assay with DXPS and IspC as previously described.[41],[42] Briefly, Reaction mixtures containing HEPES (100 mM, pH 8.0), MgCl2 (2 mM), NaCl (5 mM), ThDP (1 mM), BSA (1 mg/mL), DXPS (125–500 nM), IspC (1.7 μM), NADPH (160 μM), DMSO (5%, v/v), and inhibitor (0–200 μM) were preincubated at 25 °C (or chamber temperature 25–30 °C) for 5 min. Enzymatic reactions were initiated via the addition of 20 μL of a 10x substrate mix for a final well volume of 200 μL. Reactions were performed in triplicate unless otherwise noted. See the following sections for details and modifications.
When varying pyruvate (0–500 μM), GAP was maintained at 50 μM (3 mM for R478A). When varying GAP (0–500 μM), pyruvate was maintained at 500 μM. The following [DXPS] were used when varying 1: WT EcDXPS, R478A, H431A, D427A (200 nM), R99A (500 nM), WT DrDXPS, WT PaDXPS (150 nM). […] Reactions were incubated and initiated as described above. Immediately following initiation, NADPH depletion was monitored at 340 nm at 25 °C for 7–10 min with a 14–20 second time interval. Initial velocities of DXP formation were determined from the linear portion of the NADPH decay. […] Initial velocities were plotted vs. substrate concentration, and the data were fit to equation 1 (mixed model), 2 (competitive), or 3 (uncompetitive) based on the calculated α value and goodness of fit in GraphPad Prism. Reported standard errors of the mean for Kis are calculated from three replicates.

The target in assay [1] is T2, pyruvate decarboxylase (PDC) (Saccharomyces cerevisiae, UniProt P06169).
T2 construct: purchased Sigma Aldrich P9474; host or cells: baker's yeast
Nature of the assay: Inhibition of PDC (ADH coupled assay). It is filed as biochemical, S. cerevisiae. Here is the method:
Reaction conditions were optimized from a previously reported assay.[38] Briefly, reaction mixtures containing MES (100 mM, pH 6.2), MgCl2 (2 mM), ThDP (5 mM), PDC (0.06 U/mL), ADH (16 U/mL), NADH (170 μM), and 1 (0 or 200 μM) were preincubated at 25 °C for 5 min. Enzymatic reactions were initiated via the addition of 20 μL of 10x pyruvate (final 1mM), or water for background controls, for a final well volume of 200 μL. Immediately following initiation, NADH depletion was monitored at 340 nm at 25 °C for 7 min with a 14 second time interval. Initial velocities of acetaldehyde formation were measured and arithmetically corrected for background rates. Standard errors of reported % inhibition values were determined from 3 replicates. pH controls were conducted with phosphate buffer (pH 7 and 8); background subtraction was not performed on these samples. Reported standard errors of the mean for Kis are calculated from three replicates.

The target of assay [2] is T3, alcohol dehydrogenase (ADH) (Equus caballus, UniProt P00327).
T3 construct: purchased Sigma Aldrich 55689
The assay is described as follows: Inhibition of ADH. The conditions noted are these: up to 200 μM, MES pH 6.2. It is filed as biochemical. Here is the method:
Reaction mixtures containing MES (100 mM, pH 6.2), MgCl2 (2 mM), ThDP (5 mM), ADH (16 U/mL), NADH (170 μM), and 1 (0 or 200 μM) were preincubated at 25 °C for 5 min. Enzymatic reactions were initiated via the addition of 20 μL of 10x acetaldehyde (final 1mM), or water for background controls, for a final well volume of 200 μL. Immediately following initiation, NADH depletion was monitored at 340 nm at 25 °C for 6 min with a 11 second time interval. Initial velocities of ethanol formation were measured as above and arithmetically corrected for background rates. Reported standard errors of the mean for Kis are calculated from three replicates.

Another assay has as its target T4, H431A DXPS (Escherichia coli, UniProt P77488, H431A).
T4 construct: made in house
The assay is described as follows: DXPS-IspC coupled assay, H431A variant. Type of assay: biochemical, E. coli. Here is the method: To determine the role of active site network residues in the activity of oximes, inhibitory activity of 1 was assessed against EcD427A, EcH431A, and EcR99A by the DXPS-IspC coupled assay[41],[42] (Fig 4B, S3, Table S1). Ki determination was performed by varying [pyruvate] in order to assess the impact of residue substitutions on the uncompetitive mode of inhibition. […] (8.7 ± 1.2 μM, Fig S3, Table S1).
as §1
When varying pyruvate (0–500 μM), GAP was maintained at 50 μM (3 mM for R478A). When varying GAP (0–500 μM), pyruvate was maintained at 500 μM. The following [DXPS] were used when varying 1: WT EcDXPS, R478A, H431A, D427A (200 nM), R99A (500 nM), WT DrDXPS, WT PaDXPS (150 nM). Analogs 3 and 4 were tested using WT EcDXPS (150 nM). Reactions were incubated and initiated as described above. Immediately following initiation, NADPH depletion was monitored at 340 nm at 25 °C for 7–10 min with a 14–20 second time interval. Initial velocities of DXP formation were determined from the linear portion of the NADPH decay. Initial velocities were arithmetically corrected for background for compound 4. Initial velocities were plotted vs. substrate concentration, and the data were fit to equation 1 (mixed model), 2 (competitive), or 3 (uncompetitive) based on the calculated α value and goodness of fit in GraphPad Prism. Reported standard errors of the mean for Kis are calculated from three replicates.

The next assay concerns the target T5, WT EcDXPS (Escherichia coli, UniProt P77488).
T5 construct: made in house
The assay is described as follows: Anaerobic apparent Ki, DXPS-IspC coupled assay. It is filed as biochemical, E. coli. Here is the method: as §1
Reaction components were brought into the anaerobic chamber and allowed to deoxygenate for ~2 hours. WT EcDXPS was used at 125 nM. When varying pyruvate (0–500 μM), GAP was maintained at 50 μM. When varying GAP (0–500 μM), pyruvate was maintained at 500 μM. Reactions were incubated and initiated as described above. Immediately following initiation, NADPH depletion was monitored at 340 nm at chamber temperature (25–30 °C) for 5 min with a ~17 second time interval. Initial velocities of DXP formation were determined as above, plotted vs. substrate concentration, and the data were fit to either equation 2, or 3 based on the calculated α value and goodness of fit in GraphPad Prism. Reported standard errors of the mean for Kis are calculated from three replicates.

For orientation: inhibition means the relative decrease from the control value, in per cent. Broadly, the Ki is the dissociation constant of the complex between target and ligand, obtained from inhibition or displacement. Read a high Ki as weaker binding.

“Also recorded” adds a separate entry of the source.

Consider `ON=Cc1cc(O)c(O)cc1O` [compound 1, 2,4,5-trihydroxybenzaldoxime], for which the “%Inhibition at 200 μM 1” value at EcDXPS (WT DXPS, HEPES pH 8, 200 μM) is recorded as ~ 79%; in assay [1] (PDC, MES pH 6.2, 200 μM), ~ 14%. Besides, the “MOI varying D-GAP” value on EcDXPS (WT EcDXPS, aerobic) is “competitive”; at WT EcDXPS (anaerobic, WT EcDXPS), “competitive”. Further, the MOI varying pyruvate result is on record as “uncompetitive” at EcDXPS (WT EcDXPS, aerobic); “uncompetitive” at H431A DXPS (EcH431A); “uncompetitive” on WT EcDXPS (anaerobic, WT EcDXPS). Also, the inhibition at 200 µM on EcDXPS (pH 8, read-out: %Inhibition at 200 μM 1, WT DXPS, HEPES pH 8, 200 μM) was 79.2 ± 0.2%; in assay [1] (pH 6.2, PDC, MES pH 6.2, 200 μM, read-out: %Inhibition at 200 μM 1) it was 14.2 ± 2.3%. Also, the “Inhibition of PDC at pH 7 or 8” value in assay [1] (200 μM, phosphate buffer pH 7 and 8) is listed as “not observed”. For the same compound, the “Inhibition of ADH” value in assay [2] was “did not inhibit; also recorded: not inhibited”. Further, the affinity at H431A DXPS, expressed as Ki, was 1100 ± 100 nM. Moreover, the “fold lower Ki relative to WT” value at H431A DXPS (H431A, vary pyruvate) is reported as ~ 4 fold. On WT EcDXPS (- O2), the “Ki (+O2)/ Ki (-O2)” value is on record as ~ 10.

These data come from doi:10.1101/2025.03.03.641193, “Trihydroxybenzaldoximes are redox cycling inhibitors of ThDP-dependent DXP synthase” (bioRxiv, 2025).
